This experiment addresses GLP-1 Receptor (Homo sapiens, UniProt P43220). The experiment is described as follows: GLP-1R agonist cAMP stimulation assay (HEK293/GLP1R/CRE-LUC cells, Cisbio cAMP dynamic 2 kit). The experiment is classed as cell-based. As to conditions: Table 3, HEK293/GLP1R/CRE-LUC cells, 30 min. The procedure:
Activation of GLP-1 receptor is known to stimulate cyclic AMP (cAMP) production in cells which indicates primary coupling to the G as subunit of the G protein heterotrimeric complex.
To optimize functional activity directed toward G as coupling, a HEK293/CRE-Luc cell line developed by HDB stably expressing the GLP-1 Receptor was used. 200× concentration of compound working solutions were prepared (Agilent Technologies Bravo) with ½ log serial dilution in 384-well Echo LDV plate (Labcyte, CatOLP-0200). 50 nL/well 200× concentration of compound working solutions were moved to 384-well white low volume plate (Greiner, Cat4784075) using Labcyte ECH0550.1×10^5 cells/mL HEK293/GLP1R/CRE-LUC (HD Biosciences) cell suspensions prepared with assay buffer (DPBS containing 0.5 mM IBMX (Sigma, Cat15879) and 0.10 BSA (GENVIEW, Cat4FA016-100g)), 10 uL cell suspensions were added to each well of previous generated assay plate which already contains 50 n^1 compound at 200 xconcentration using ThermioFisher Multidrop Combi (1000 cells/well). Seal the plate and incubate at 37 with […] for 30 m.
After incubation the cAMP assay signal was generated using cAMP dynamic 2 Kit (Cisbio). 5 μL cAMP-d2 working solution was added to each well, followed with 5 L Anti-cAMP antibody-cryptate working solution added to each well using ThermoFisher Multidrop Combi. Incubate at room temperature for 1 hour protected from light. Read the fluorescence at 665 and 615 nm with Reader PerkinElmer EnVision. % oActivity=100%×(mean RLU of test sample−mean RLU of vehicle control)/(mean RLU of MAX control−mean RLU of vehicle control)

What is called EC50 is the concentration at which the effect is half-maximal. Lower therefore signals a more potent agent.

Chain of GLP-1 Receptor (P43220 24-463, species assumed): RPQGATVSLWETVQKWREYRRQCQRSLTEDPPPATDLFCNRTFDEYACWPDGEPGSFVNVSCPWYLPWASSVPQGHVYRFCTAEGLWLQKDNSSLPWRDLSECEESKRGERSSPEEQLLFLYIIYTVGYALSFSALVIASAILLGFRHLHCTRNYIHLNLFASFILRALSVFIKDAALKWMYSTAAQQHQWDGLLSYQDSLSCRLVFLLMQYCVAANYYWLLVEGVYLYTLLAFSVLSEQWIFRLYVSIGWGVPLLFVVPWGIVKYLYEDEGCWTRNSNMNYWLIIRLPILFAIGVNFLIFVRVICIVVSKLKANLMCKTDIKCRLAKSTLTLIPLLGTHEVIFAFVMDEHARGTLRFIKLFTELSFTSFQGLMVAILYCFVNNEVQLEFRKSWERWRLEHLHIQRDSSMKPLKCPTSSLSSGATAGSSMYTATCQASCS

In turn, `Cc1cc(-n2nc3c(c2-n2ccn(-c4ccc5c(c4F)CN=S5(=O)C4CC4)c2=O)[C@H](C)N(C(=O)c2cc4cc([C@H]5CCOC(C)(C)C5)ccc4n2[C@@]2(c4noc(=O)[nH]4)C[C@@H]2C)CC3)cc(C)c1F` (single isomer, unassigned) [Compound 191] displayed an EC50 of 0.0096 nM. `Cc1cc(-n2nc3c(c2-n2ccn(-c4ccc5c(c4F)CN=S5(=O)C4CC4)c2=O)[C@H](C)N(C(=O)c2cc4cc([C@H]5CCOC(C)(C)C5)ccc4n2[C@@]2(c4noc(=O)[nH]4)C[C@@H]2C)CC3)cc(C)c1F` (single isomer, unassigned) [Compound 192] registered an EC50 of 0.02 nM. With `CN=S(=O)(c1cc(F)c(-n2ccn(-c3c4c(nn3-c3cc(C)c(F)c(C)c3)CCN(C(=O)c3cc5cc([C@H]6CCOC(C)(C)C6)ccc5n3[C@@]3(c5noc(=O)[nH]5)C[C@@H]3C)[C@H]4C)c2=O)cc1C)C1CC1` (single isomer, unassigned) [Compound 193], the EC50 was 0.1 nM. Molecule `CN=S(=O)(c1cc(F)c(-n2ccn(-c3c4c(nn3-c3cc(C)c(F)c(C)c3)CCN(C(=O)c3cc5cc([C@H]6CCOC(C)(C)C6)ccc5n3[C@@]3(c5noc(=O)[nH]5)C[C@@H]3C)[C@H]4C)c2=O)cc1C)C1CC1` (single isomer, unassigned) [Compound 194] registered a half-maximal effective concentration (EC50) of 0.046 nM. Take `CN=S(=O)(c1ccc(-n2ccn(-c3c4c(nn3-c3cc(C)c(F)c(C)c3)CCN(C(=O)c3cc5cc([C@H]6CCOC(C)(C)C6)ccc5n3[C@@]3(c5noc(=O)[nH]5)C[C@@H]3C)[C@H]4C)c2=O)c(F)c1C)C1CC1` (single isomer, unassigned) [Compound 196]: the concentration for a half-maximal effect (EC50) is 0.039 nM. Consider `Cc1cc(-n2nc3c(c2-n2ccn(-c4ccc5c(c4F)CCN=S5(=O)C4CC4)c2=O)[C@H](C)N(C(=O)c2cc4cc([C@H]5CCOC(C)(C)C5)ccc4n2[C@@]2(c4noc(=O)[nH]4)C[C@@H]2C)CC3)cc(C)c1F` (single isomer, unassigned) [Compound 197], for which the response was half-maximal at 0.018 nM (EC50). Molecule `Cc1cc(-n2nc3c(c2-n2ccn(-c4ccc5c(c4F)CCN=S5(=O)C4CC4)c2=O)[C@H](C)N(C(=O)c2cc4cc([C@H]5CCOC(C)(C)C5)ccc4n2[C@@]2(c4noc(=O)[nH]4)C[C@@H]2C)CC3)cc(C)c1F` (single isomer, unassigned) [Compound 198] came in with a concentration for a half-maximal effect (EC50) of 0.023 nM. In the case of `Cc1cc(-n2nc3c(c2-n2ccn(-c4cc5c(cc4F)S(C)(=O)=NC5)c2=O)[C@H](C)N(C(=O)c2cc4cc([C@H]5CCOC(C)(C)C5)ccc4n2[C@@]2(c4noc(=O)[nH]4)C[C@@H]2C)CC3)cc(C)c1F` (single isomer, unassigned) [Compound 199], a half-maximal effect (EC50) was put at 0.01 nM.

`Cc1cc(-n2nc3c(c2-n2ccn(-c4cc5c(cc4F)S(C)(=O)=NC5)c2=O)[C@H](C)N(C(=O)c2cc4cc([C@H]5CCOC(C)(C)C5)ccc4n2[C@@]2(c4noc(=O)[nH]4)C[C@@H]2C)CC3)cc(C)c1F` (single isomer, unassigned) [Compound 200] registered an EC50 of 0.01 nM. `Cc1cc(-n2nc3c(c2-n2ccn(-c4ccc5c(c4Cl)CN=S5(C)=O)c2=O)[C@H](C)N(C(=O)c2cc4cc([C@H]5CCOC(C)(C)C5)ccc4n2[C@@]2(c4noc(=O)[nH]4)C[C@@H]2C)CC3)cc(C)c1F` (single isomer, unassigned) [Compound 201] displayed an EC50 of 0.011 nM. The figure for `Cc1cc(-n2nc3c(c2-n2ccn(-c4ccc5c(c4Cl)CN=S5(C)=O)c2=O)[C@H](C)N(C(=O)c2cc4cc([C@H]5CCOC(C)(C)C5)ccc4n2[C@@]2(c4noc(=O)[nH]4)C[C@@H]2C)CC3)cc(C)c1F` (single isomer, unassigned) [Compound 202] is 0.018 nM; for `CN=S(=O)(c1ccc(-n2ccn(-c3c4c(nn3-c3cc(C)c(Cl)c(C)c3)CCN(C(=O)c3cc5cc([C@H]6CCOC(C)(C)C6)ccc5n3[C@@]3(c5noc(=O)[nH]5)C[C@@H]3C)[C@H]4C)c2=O)c(F)c1)C1CC1` (single isomer, unassigned) [Compound 203] it is 0.032 nM; for `CN=S(=O)(c1ccc(-n2ccn(-c3c4c(nn3-c3cc(C)c(F)c(C)c3)CCN(C(=O)c3cc5cc([C@H]6CCOC(C)(C)C6)ccc5n3[C@@]3(c5noc(=O)[nH]5)C[C@@H]3C)[C@H]4C)c2=O)c(Cl)c1)C1CC1` (single isomer, unassigned) [Compound 204] it is 0.039 nM.

`CN=S(=O)(c1ccc(-n2ccn(-c3c4c(nn3-c3cc(C)c(F)c(C)c3)CCN(C(=O)c3cc5cc([C@H]6CCOC(C)(C)C6)ccc5n3[C@@]3(c5noc(=O)[nH]5)C[C@@H]3C)[C@H]4C)c2=O)c(Cl)c1)C1CC1` (single isomer, unassigned) [Compound 205] yielded an EC50 of 0.072 nM.

As to `CC1=Cc2cc(-n3ccn(-c4c5c(nn4-c4cc(C)c(F)c(C)c4)CCN(C(=O)c4cc6cc([C@H]7CCOC(C)(C)C7)ccc6n4[C@@]4(c6noc(=O)[nH]6)C[C@@H]4C)[C@H]5C)c3=O)ccc2S(C)(=O)=N1` (single isomer, unassigned) [Compound 206], a half-maximal response (EC50) required 0.02 nM.

In turn, `CC1=Cc2cc(-n3ccn(-c4c5c(nn4-c4cc(C)c(F)c(C)c4)CCN(C(=O)c4cc6cc([C@H]7CCOC(C)(C)C7)ccc6n4[C@@]4(c6noc(=O)[nH]6)C[C@@H]4C)[C@H]5C)c3=O)ccc2S(C)(=O)=N1` (single isomer, unassigned) [Compound 207] registered an EC50 of 0.02 nM. As for `CCN=S(=O)(c1ccc(-n2ccn(-c3c4c(nn3-c3cc(C)c(F)c(C)c3)CCN(C(=O)c3cc5cc([C@H]6CCOC(C)(C)C6)ccc5n3[C@@]3(c5noc(=O)[nH]5)C[C@@H]3C)[C@H]4C)c2=O)c(F)c1)C1CC1` (single isomer, unassigned) [Compound 208], the EC50 was determined as 0.11 nM.

`Cc1cc(-n2nc3c(c2-n2ccn(-c4ccc(S(=O)(=NC5CC5)C5CC5)cc4F)c2=O)[C@H](C)N(C(=O)c2cc4cc([C@H]5CCOC(C)(C)C5)ccc4n2[C@@]2(c4noc(=O)[nH]4)C[C@@H]2C)CC3)cc(C)c1F` (single isomer, unassigned) [Compound 209] returned a half-maximal effective concentration (EC50) of 0.22 nM. In turn, `CC1=Cc2c(ccc(-n3ccn(-c4c5c(nn4-c4cc(C)c(F)c(C)c4)CCN(C(=O)c4cc6cc([C@H]7CCOC(C)(C)C7)ccc6n4[C@@]4(c6noc(=O)[nH]6)C[C@@H]4C)[C@H]5C)c3=O)c2F)S(=O)(C2CC2)=N1` (single isomer, unassigned) [Compound 210] yielded an EC50 of 0.067 nM. With `CC1=Cc2c(ccc(-n3ccn(-c4c5c(nn4-c4cc(C)c(F)c(C)c4)CCN(C(=O)c4cc6cc([C@H]7CCOC(C)(C)C7)ccc6n4[C@@]4(c6noc(=O)[nH]6)C[C@@H]4C)[C@H]5C)c3=O)c2F)S(=O)(C2CC2)=N1` (single isomer, unassigned) [Compound 211], the EC50 was 0.041 nM.

`Cc1cc(-n2nc3c(c2-n2ccn(-c4ccc5c(c4)CCCN=S5(=O)C4CC4)c2=O)[C@H](C)N(C(=O)c2cc4cc([C@H]5CCOC(C)(C)C5)ccc4n2[C@@]2(c4noc(=O)[nH]4)C[C@@H]2C)CC3)cc(C)c1F` (single isomer, unassigned) [Compound 212] displayed an EC50 of 0.038 nM.

For the molecule `Cc1cc(-n2nc3c(c2-n2ccn(-c4ccc5c(c4)CCCN=S5(=O)C4CC4)c2=O)[C@H](C)N(C(=O)c2cc4cc([C@H]5CCOC(C)(C)C5)ccc4n2[C@@]2(c4noc(=O)[nH]4)C[C@@H]2C)CC3)cc(C)c1F` (single isomer, unassigned) [Compound 213], it took 0.12 nM to reach a half-maximal effect (EC50). For the molecule `CN=S(=O)(c1ccc(-n2ccn(-c3c4c(nn3-c3cc(C)c(F)c(C)c3)CCN(C(=O)c3cc5cc([C@H]6CCOC(C)(C)C6)ccc5n3[C@@]3(c5noc(=O)[nH]5)C[C@@H]3C)[C@H]4C)c2=O)c(F)c1Cl)C1CC1` (single isomer, unassigned) [Compound 215], the 50% effective concentration (EC50) is 0.074 nM. As for `CN=S(=O)(c1ccc(-n2ccn(-c3c4c(nn3-c3ccc(F)c(C5CC5)c3)CCN(C(=O)c3cc5cc([C@H]6CCOC(C)(C)C6)ccc5n3[C@@]3(c5noc(=O)[nH]5)C[C@@H]3C)[C@H]4C)c2=O)c(F)c1C)C1CC1` (single isomer, unassigned) [Compound 217], the EC50 came to 0.2 nM. In turn, `CN=S(=O)(c1ccc(-n2ccn(-c3c4c(nn3-c3cc(C)c(F)c(C)c3)CCN(C(=O)c3cc5cc([C@H]6CCOC(C)(C)C6)ccc5n3[C@@]3(c5noc(=O)[nH]5)C[C@@H]3C)[C@H]4C)c2=O)c(F)c1C(C)C)C1CC1` (single isomer, unassigned) [Compound 219] returned a concentration for a half-maximal effect (EC50) of 0.193 nM. The figure for `CN=S(=O)(c1ccc(-n2ccn(-c3c4c(nn3-c3cc(C)c(F)c(C)c3)CCN(C(=O)c3cc5cc([C@H]6CCOC(C)(C)C6)ccc5n3[C@@]3(c5noc(=O)[nH]5)C[C@@H]3C)[C@H]4C)c2=O)c(F)c1C(C)C)C1CC1` (single isomer, unassigned) [Compound 220] is 0.134 nM. Turning to `CN=S(=O)(c1ccc(-n2ccn(-c3c4c(nn3-c3cc(C)c(F)c(C)c3)CCN(C(=O)c3cc5cc(C6CCOCC6)ccc5n3[C@@]3(c5noc(=O)[nH]5)C[C@@H]3C)[C@H]4C)c2=O)c(F)c1)C1CC1` (single isomer, unassigned) [Compound 222], the concentration giving a half-maximal response (EC50) was found to be 0.084 nM.

The values above are taken from patent US12291529B2, “Heterocyclic GLP-1 agonists” (Gasherbrum Bio, Inc., priority 2023, dated 2025).
